# Test results as given in US11407740B2 (priority 2018, dated 2022).
# System: K. pneumoniae
# Assay: Bacterial susceptibility testing, MIC by broth microdilution (CLSI)
# Type: cell-based
# Conditions: 35° C., 18-24 h
# Protocol: (§1) Minimal inhibitory concentrations (MIC) were determined by the broth microdilution method in accordance with the Clinical and Laboratory Standards Institute (CLSI) guidelines. In brief, organism suspensions were adjusted to a 0.5 McFarland standard to yield a final inoculum between 3×10^3 and 7×10^5 colony-forming units (CFU)/mL. Drug dilutions and inocula were made in sterile, cation adjusted Mueller-Hinton Broth (Beckton Dickinson). An inoculum volume of 100 μL was added to wells containing 100 μL of broth with 2-fold serial dilutions of drug.
row,Compound,K. pneumoniae MIC
1,O=c1[nH]cnc(CC(CO)c2ccc(C#Cc3ccc(CN4CCNCC4)cc3)cc2)c1O (stereo not drawn) [Compound 54],B (B: >1 μg/mL to ≤8.0 μg/mL)

# System: E. coli
# Assay: as above
# Conditions: Escherichia coli, read-out: E. coli MIC, broth microdilution, 35° C., 18-24 h
# Protocol: as §1
row,Compound,MIC [µg/mL]
1,O=c1[nH]cnc(CC(CO)c2ccc(C#Cc3ccc(CN4CCNCC4)cc3)cc2)c1O (stereo not drawn) [Compound 54],1 to 8
2,O=c1[nH]cnc(CC(CNCC(F)F)c2ccc(C#Cc3ccc(CN4CCOCC4)cc3)cc2)c1O (stereo not drawn) [Compound 115],< 1
3,O=c1[nH]cnc(CC(CNC2CC2)c2ccc(C#Cc3ccc(CN4CCOCC4)cc3)cc2)c1O (stereo not drawn) [Compound 118],< 1
4,COC1CN(Cc2ccc(C#Cc3ccc(C(Cc4nc[nH]c(=O)c4O)CN4C(=O)OC[C@@H]4C)cc3)cc2)C1 (stereo partly drawn) [Compound 121],1 to 8
5,CS(=O)(=O)CCNCC(Cc1nc[nH]c(=O)c1O)c1ccc(C#Cc2ccc(CN3CCOCC3)cc2)cc1 (stereo not drawn) [Compound 128],1 to 8
6,O=c1[nH]cnc(CC(CNCCO)c2ccc(C#Cc3ccc(CN4CCOCC4)cc3)cc2)c1O (stereo not drawn) [Compound 129],1 to 8
7,N#CCCNCC(Cc1nc[nH]c(=O)c1O)c1ccc(C#Cc2ccc(CN3CCOCC3)cc2)cc1 (stereo not drawn) [Compound 130],1 to 8
8,CC(NCC(F)F)C(Cc1nc[nH]c(=O)c1O)c1ccc(C#Cc2ccc(CN3CCOCC3)cc2)cc1 (stereo not drawn) [Compound 131],1 to 8
9,N#CCCNCC(Cc1nc[nH]c(=O)c1O)c1ccc(C#Cc2ccc(CN3CC(CC#N)C3)cc2)cc1 (stereo not drawn) [Compound 134],8 to 32
10,CC(F)CNCC(Cc1nc[nH]c(=O)c1O)c1ccc(C#Cc2ccc(CCN3CCOCC3)cc2)cc1 (stereo not drawn) [Compound 138],1 to 8
11,O=c1[nH]cnc(CC(NCCCF)c2ccc(C#Cc3ccc(CN4CCOCC4)cc3)cc2)c1O (stereo not drawn) [Compound 139],< 1
12,CC(CF)NC(Cc1nc[nH]c(=O)c1O)c1ccc(C#Cc2ccc(CN3CCOCC3)cc2)cc1 (stereo not drawn) [Compound 141],< 1
13,N=S1(=O)CCC(NCc2ccc(C#Cc3ccc(C(CO)Cc4nc[nH]c(=O)c4O)cc3)cc2)CC1 (stereo not drawn) [Compound 149],1 to 8
14,O=C(CO)N1CCN(Cc2ccc(C#Cc3ccc(C(CO)Cc4nc[nH]c(=O)c4O)cc3)cc2)CC1 (stereo not drawn) [Compound 152],< 1
15,O=C(C1CC1)N1CC[C@@H](NCc2ccc(C#Cc3ccc(C(CO)Cc4nc[nH]c(=O)c4O)cc3)cc2)C1 (stereo partly drawn) [Compound 153],< 1
16,O=C(CO)N1CCC(NCc2ccc(C#Cc3ccc(C(CO)Cc4nc[nH]c(=O)c4O)cc3)cc2)CC1 (stereo not drawn) [Compound 157],1 to 8
17,COCCNCC(Cc1nc[nH]c(=O)c1O)c1ccc(C#Cc2ccc(CN3CCOCC3)cc2)cc1 (stereo not drawn) [Compound 164],1 to 8
18,O=c1[nH]cnc(CC(NCCCCl)c2ccc(C#Cc3ccc(CN4CCOCC4)cc3)cc2)c1O (stereo not drawn) [Compound 172],< 1

row,Compound,MIC [µg/mL]
1,COC1CCN(Cc2ccc(C#Cc3ccc(C(N)Cc4nc[nH]c(=O)c4O)cc3)cc2)CC1 (stereo not drawn) [Compound 174],< 1
2,COC1CN(Cc2ccc(C#Cc3ccc(C(Cc4nc[nH]c(=O)c4O)CN4CC(OC)C4)cc3)cc2)C1 (stereo not drawn) [Compound 175],1 to 8
3,O=c1[nH]cnc(CC(CN2CCC2)c2ccc(C#Cc3ccc(CN4CCOCC4)cc3)cc2)c1O (stereo not drawn) [Compound 177],< 1
4,O=c1[nH]cnc(CC(CNCc2ccn[nH]2)c2ccc(C#Cc3ccc(CN4CCOCC4)cc3)cc2)c1O (stereo not drawn) [Compound 184],1 to 8
5,COCC(Cc1nc[nH]c(=O)c1O)c1ccc(C#Cc2ccc(CN3CCOCC3)cc2)cc1 (stereo not drawn) [Compound 190],< 1
6,O=C(NCC(F)F)C(Cc1nc[nH]c(=O)c1O)N1Cc2cc(C#Cc3ccc(CN4CCOCC4)cc3)cn2C1=O (stereo not drawn) [Compound 191],< 1
7,COC(=O)C(Cc1nc[nH]c(=O)c1O)N1Cc2cc(C#Cc3ccc(CN4CCOCC4)cc3)cn2C1=O (stereo not drawn) [Compound 192],1 to 8
8,O=C1N(C(CO)Cc2nc[nH]c(=O)c2O)Cc2cc(C#Cc3ccc(CN4CCOCC4)cc3)cn21 (stereo not drawn) [Compound 193],1 to 8
9,O=c1[nH]cnc(CC(CO)c2ccc(C#Cc3cnn(CC4CCOCC4)c3)cc2)c1O (stereo not drawn) [Compound 194],1 to 8
10,O=c1[nH]cnc(CC(CO)c2ccc(C#Cc3ccc(CN4CCOCC4)nc3)cc2)c1O (stereo not drawn) [Compound 195],1 to 8
11,O=c1[nH]cnc(CC(CO)c2ccc(C#Cc3ccc(CN4CCOCC4)cc3)cn2)c1O (stereo not drawn) [Compound 196],1 to 8
12,Cn1cc(C#Cc2ccc(C(CO)Cc3nc[nH]c(=O)c3O)cc2)cn1 (stereo not drawn) [Compound 197],8 to 32
13,Cn1cc(C#Cc2ccc(C(CNCCF)Cc3nc[nH]c(=O)c3O)cc2)cn1 (stereo not drawn) [Compound 199],1 to 8
14,Cn1cc(C#Cc2ccc(C(N)Cc3nc[nH]c(=O)c3O)cc2)cn1 (stereo not drawn) [Compound 200],1 to 8
15,O=c1[nH]cnc(CC(CO)c2ccc(C#Cc3cnn(C4CCOCC4)c3)cc2)c1O (stereo not drawn) [Compound 202],1 to 8
16,O=C1N(C(CO)Cc2nc[nH]c(=O)c2O)Cc2cc(-c3ccc(CCN4CCOCC4)cc3)cn21 (stereo not drawn) [Compound 203],1 to 8
17,O=c1[nH]cnc(C[C@H](CO)c2ccc(C#C[C@H]3CC[C@H](CN4CCOCC4)CC3)cc2)c1O [Compound 204],8 to 32
